Laboratory results published in patent publication US11026972B2, “Methods for generating macrophages with enhanced cancer phagocytosis” (Georgia State University Research Foundation, Inc., priority 2016, dated 2021).

B1: IL-17: recombinant murine cytokine interleukin IL-17 (also known as IL-17A), PeproTech (protein, UniProt Q62386 26-158, looked up)
Interleukin-17A: AAIIPQSSACPNTEAKDFLQNVKVNLKVFNSLGAKVSSRRPSDYLNRSTSPWTLHRNEDPDRYPSVIWEAQCRHQRCVNAEGKLDHHMNSVLIQQEILVLKREPESCPFTFRVEKMLVGVGCTCVASIVRQAA

How the values were obtained:
Format in all cases: cell-based, mouse
Syk = Syk phosphorylation at Y519/520 in PEMs
Protocol: FIGS. 5A-5H include data related to our experiments on the role of Syk in phagocytic activation. […] PEMs were treated with LPS and cytokines in the presence of various inhibitors. After washing, inhibitor-free macrophages were tested for phagocytosis toward RBCs. […] PEMs treated with LPS and activating cytokines, or together with IL-10, were tested for total Syk and phosphorylated Syk (Syk^pY, specific at Y519/520). FIG. 5D describes PMA-induced macrophages phagocytosis toward RBCs. WT and SIRPα^−/− PEMs were treated with PMA (37° C., 30 min) before testing phagocytosis toward RBCs. FIG. 5E is a schematic depiction of PKC-Syk-mediated macrophage phagocytic activation toward self. […] Left: Inhibition of Syk by piceatannol and R406 prevented PMA-induced phagocytic activation. […] Error bars are ±SEM. ***P<0.001 vs. the respective controls. […] LPS-treated WT PEMs were further briefly treated with pervanadate before testing for phagocytosis toward RBCs. Error bars are ±SEM. ***P<0.001 vs. the respective controls. […] Data presented in each panel represent at least three independent experiments with n≥4, if applicable.
Multiple pharmacological inhibitors were tested for their effects on LPS and cytokine-induced activation of macrophage phagocytosis toward self. […] For example, inhibition of JAKs blocked IL-6 and IL-17, but not LPS and TNFα, for activation of PEM phagocytosis. […]

[1] = test system: splenic macrophages, PEMs and BMDMs; experiment: Ex vivo macrophage phagocytosis toward RBCs and other self-cells after activation; conditions: for conversion to potent phagocytes toward self: PEMs and BMDMs from WT and mutant mice; for phagocytosis toward CD47^− RBCs of culture-retarded WT spleen macrophages: after 2 days of culturing; for phagocytosis toward RBCs: splenic macrophages from SIRPα^−/− or CD47^−/− mice
Outline: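 Mouse splenic or peritoneal macrophages (2 h adherent selection) or BMDMs (M-CSF ~10 ng/ml, 5-6 days) were co-incubated 30 min at 37 °C with CFSE-labelled RBCs (1:5-10) or other cells (1:1-2). Uptake was scored by fluorescence microscopy and/or FACS with anti-F4/80 or anti-CD11b macrophage labelling.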

[2] = test system: cell surface LRP1 and CRT on PEMs; experiment: Macrophage cell surface CRT and LRP1 by FACS; conditions: after treatment with phagocytic activation factor
Protocol: FIGS. 6A-6D include data related to our investigation of possible phagocytic receptors on macrophages for phagocytosing healthy self-cells. […] PEM (unstimulated) phagocytosis toward apoptotic B16 cells was tested in the presence of same antibodies and RAP as in A. Error bars are ±SEM. ***P<0.001 vs. phagocytosis in the presence of control IgG. […] PEMs, with or without (ctl.) treatment with LPS, IL-17, IL-6, or PMA, were labeled for cell surface LRP1 and CRT followed by FACS. Increased and decreased expressions were marked by arrows. […] Activated PEM phagocytosis toward RBCs was tested in the presence of antibodies against SR-A, Fc receptor Cd16/32 (10 μg/mL of each), inhibitors against SR-B (BLT1, 5 μM), dectin (laminarin, 100 μg/mL), complement (heparin, 40 U/mL), and antibody against Cd11b (10 μg/mL). Error bars are ±SEM. ***P<0.001 vs. the respective control without inhibition. Data presented in each panel represent at least three independent experiments with n≥4, if applicable.

Row | Molecule | Syk phosphorylation (Syk^PY, Y519/520) (Syk) | conversion to potent phagocytes toward self [1] | phagocytosis of other cell types ([1]; activated macrophages, CD47-SIRPα-controllable manner) | phagocytosis toward CD47^− RBCs of culture-retarded WT spleen macrophages [1] | phagocytosis toward RBCs [1] | cell surface CRT or LRP1 on PEMs [2]
1 | lipopolysaccharide [LPS] | increases in Syk^PY | converted all PEMs and BMDMs | capable of phagocytizing murine splenocytes, B16 melanoma cells, and EL4 lymphoblasts | dramatically rekindled | rapidly induced their phagocytosis toward RBCs | induced an increase in CRT
2 | B1 |  | converted all PEMs and BMDMs |  | dramatically rekindled | rapidly induced their phagocytosis toward RBCs | 
